Source: US20240336617A1, “Substituted Bimane Compounds and Methods of Use Thereof” (THE TRUSTEES OF THE UNIVERSITY OF PENNSYLVANIA, priority 2023, published 2024)

How the values were obtained:
[1] = Molar absorptivity determination; type: physicochemical;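 note: molar absorptivity derived from UV-Vis absorbance spectra recorded for each derivative on a spectrometer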
Protocol: The absorbance spectrum of each derivative (150 μL) was measured on a Thermo Scientific Genesys 150 UV-Vis spectrometer, using 50:50 ACN/PBS as a blank.
Molar absorptivity determination. […] The absorbance spectrum of each derivative (150 μL) was measured on a Thermo Scientific Genesys 150 UV-Vis spectrometer, using 50:50 ACN/PBS as a blank.

[2] = Fluorescent quantum yield (QY) measurements; type: physicochemical; details: for Fluorescence QY: ACN/PBS buffer (1:1 v/v); for Fluorescence quantum yield: in ACN
Protocol: For each QY measurement, the incident excitation light spectrum was collected with 1 mL of solvent. […] Using the JASCO Quantum Yield Software, the dye QY was calculated by dividing the dye fluorescence intensity by the difference in incident light intensity in the presence and absence of dye. The minimum excitation wavelength for a full excitation incident spectrum using this setup is 360 nm.
Fluorescent quantum yield (QY) measurements. For each QY measurement, the incident excitation light spectrum was collected with 1 mL of solvent. After measuring the incident light intensity, dye (3 and 5a-5k) was added to the solvent from a concentrated stock solution to a final concentration of […] and the new spectrum (fluorescence intensity and new incident light intensity) was collected. Using the JASCO Quantum Yield Software, the dye QY was calculated by dividing the dye fluorescence intensity by the difference in incident light intensity in the presence and absence of dye. The minimum excitation wavelength for a full excitation incident spectrum using this setup is 360 nm.

[3] = Absorbance measurements (UV-Vis); details: for Abs. λabs: 25 μM; for Absorbance Wavelength: ACN:PBS buffer (50:50 v/v)
Protocol: Samples were individually diluted to the final concentration of 25 μM (500 μL) using 50:50 acetonitrile in phosphate buffered saline (ACN/PBS). The absorbance spectrum of each derivative (150 μL) was measured on a Thermo Scientific Genesys 150 UV-Vis spectrometer, using 50:50 ACN/PBS as a blank.

[4] = Fluorescence (emission) measurements; type: physicochemical;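 note: fluorescence emission spectra recorded on a spectrofluorometer, with each compound excited at its own absorption maximum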
Protocol: The fluorescence spectrum of each derivative (150 μL) was measured on a Photon Technology International (PTI) QuantaMaster™ 40 fluorescence spectrometer by excitation at the maximum absorption wavelength for each compound.
The fluorescence spectrum of each derivative (150 μL) was measured on a Photon Technology International (PTJ) QuantaMaster™ 40 fluorescence spectrometer by excitation at the maximum absorption wavelength for each compound.

[5] = Fluorescence lifetime measurements (TCSPC); type: physicochemical; details: for Fluorescence Lifetime: ACN/PBS buffer (1:1 v/v); for Lifetime: ACN/PBS buffer (50:50 v/v), excitation 340 nm
Protocol: Time correlated single photon counting (TCSPC) measurements of fluorescence lifetime decays for 100 μM solutions of dyes (6, 7c, 7e, 7f, and 7g) in ACN/PBS buffer (50:50 v/v) were collected with the PTI Quantamaster™ 40 using a pulsed LED with a maximum emission at 340 nm. Fluorescence emission was collected at the indicated wavelength for each dye with 20 nm slit widths. The instrument response function (IRF) was collected under identical conditions. Data analysis was performed with FluoFit software (PicoQuant GmbH; Berlin, Germany) using an exponential decay model.
Fluorescence lifetime measurements. Time correlated single photon counting (TCSPC) measurements of fluorescence lifetime decays for 100 μM solutions of dyes (3 and 5c-f) in ACN/PBS buffer (50:50 v/v) were collected with the PTI Quantamaster™ 40 using a pulsed LED with a maximum emission at 340 nm. Fluorescence emission was collected at the indicated wavelength for each dye with 20 nm slit widths. The instrument response function ([…]) was collected under identical conditions. Data analysis was performed with FluoFit software (PicoQuant GmbH; Berlin, Germany) using an exponential decay model. […] FIG. 64D Fluorescence spectra of 5i-5k. […] Fluorescence spectra were measured at their maximum absorption wavelength. FIGS. 66A-66K show representative QY acquisitions of 3 and 5a-f, 5h-k in ACN/PBS buffer (50:50). All had consistent excitation (360 nm) and spectral collection (350-800 nm) parameters. Final concentration of the probe is 500 μM. Black line indicates incident light and blue line indicates sample spectrum. […] All had consistent excitation (360 nm, slit width 10 nm) and spectral collection (350-800 nm) parameters. Final concentration of the probe is 500 µM. Black line indicates incident light and blue line indicates sample spectrum. FIG. 68: Effect of pH on absorption and emission of 5h and 5j. […] For pH screening of 5h and 5j, PBS buffer solutions were prepared, then adjusted the pH 2, 4, and 7 by adding 6 M hydrochloric acid, pH 9 and 11 by adding 5 M sodium hydroxide. Emission spectra were measured by the excitation wavelength 354 nm for 5h and 385 nm for 5j. […] Lifetime measurements with exponential fits shown at left and residuals after fitting shown at right.

[6] = ACN/PBS buffer (1:1 v/v), pH 7.4
[7] = in ACN, at maximum absorption wavelength
[8] = 25 μM in ACN/PBS buffer (1:1 v/v), pH 7.4

SMILES | ε ([1]; ACN only) [M⁻¹ cm⁻¹] | ε ([1]; ACN:PBS (50:50 v/v)) [M⁻¹ cm⁻¹] | Q.Y. ([2]; ACN only) [%] | Q.Y. ([2]; ACN:PBS (50:50 v/v)) [%] | Abs. λabs ([3]; ACN only) [nm] | Abs. λabs ([3]; ACN:PBS (50:50 v/v)) [nm] | Stokes shift ([4]; ACN only) [nm] | Stokes shift ([4]; ACN:PBS (50:50 v/v)) [nm] | Molar Absorptivity (ε) [1, 6] [M⁻¹ cm⁻¹] | Molar Absorptivity (ε) [1, 7] [M⁻¹ cm⁻¹] | Fluorescence QY [2] [%] | Fluorescence quantum yield [2] [%] | Fluorescence quantum yield ([2]; Table S12) [%] | Absorbance λmax ([3]; 25 μM in ACN) [nm] | Absorbance λmax [3, 8] [nm] | Absorbance Wavelength ([3]; Table 11) [nm] | Absorbance Wavelength ([3]; Table S14) [nm] | Emission λmax [4, 8] [nm] | Stokes shift ([4]; ACN/PBS buffer (1:1 v/v)) [nm] | Stokes shift ([4]; in ACN) [nm] | also measured
Cc1c(C)n2c(/C=C/c3ccc([N+](=O)[O-])cc3)c(C)c(=O)n2c1=O [Compound 7a, (E)-2,3,6-trimethyl-5-(4-nitrostyryl)-1H,7H-pyrazolo[1,2-a]pyrazole-1,7-dione] |  |  |  |  |  |  |  |  | 36955 | 37871 | 0.1 | 0.2 | 0.2 | 332 | 335 | 335 | 335 | 468 | 133 | 100 | fluorescence quantum yield (QY) ([2]; in ACN/PBS): essentially non-fluorescent; λabs ([3]; ACN/PBS): 335 nm; Emission λmax ([4]; 25 μM in ACN): 432 nm; Emission λem ([4]; 25 μM in ACN, Table S12): 432 nm
Cc1c(C)n2c(/C=C/c3ccc(F)cc3)c(C)c(=O)n2c1=O [Compound 7c, (E)-3-(4-fluorostyryl)-2,5,6-trimethyl-1H,7H-pyrazolo[1,2-a]pyrazole-1,7-dione] |  |  |  |  |  |  |  |  | 23796 | 28940 | 2.5 | 2.8 | 2.8 | 315 | 321 | 321 | 321 | 502 | 181 | 177 | Fluorescence Lifetime [5]: 1.07 ns; Lifetime ([5]; Table 4): 1.07 ± 0.003 ns; Lifetime ([5]; Table S13): 1.07 ± 0.003 ns
COc1ccc(/C=C/c2c(C)c(=O)n3c(=O)c(C)c(C)n23)cc1 [Compound 7g, (E)-3-(4-methoxystyryl)-2,5,6-trimethyl-1H,7H-pyrazolo[1,2-a]pyrazole-1,7-dione] |  |  |  |  |  |  |  |  | 25659 | 34554 | 3.3 | 3.5 | 3.5 | 342 | 348 |  | 348 | 504 | 156 | 146 | Fluorescence Lifetime [5]: 1.31 ns; Lifetime ([5]; Table 4): 1.31 ± 0.004 ns; Lifetime ([5]; Table S13): 1.31 ± 0.004 ns
Cc1c(C)n2c(/C=C/c3ccc(N=[N+]=[N-])cc3)c(C)c(=O)n2c1=O [Compound 7d, (E)-3-(4-azidostyryl)-2,5,6-trimethyl-1H,7H-pyrazolo[1,2-a]pyrazole-1,7-dione] |  |  |  |  |  |  |  |  | 27699 | 36055 | 1.3 | 1.5 |  | 339 | 350 |  |  | 502 | 152 | 101 | 
Cc1c(C)n2c(/C=C/c3ccc(NC(=O)OC(C)(C)C)cc3)c(C)c(=O)n2c1=O [Compound 7i, tert-butyl (E)-(4-(2-(2,5,6-trimethyl-1,7-dioxo-1H,7H-pyrazolo[1,2-a]pyrazol-3-yl)vinyl)phenyl)carbamate] |  |  |  |  |  |  |  |  | 34826 | 37555 | 3.4 | 3.4 | 3.4 | 348 | 356 | 354 |  | 505 | 149 | 142 | maximum emission wavelength (λem) ([4]; 50:50 ACN/PBS, excitation at λabs): 583 nm
Cc1ccc(/C=C/c2c(C)c(=O)n3c(=O)c(C)c(C)n23)cc1 [Compound 7f, (E)-2,3,6-trimethyl-5-(4-methylstyryl)-1H,7H-pyrazolo[1,2-a]pyrazole-1,7-dione] |  |  |  |  |  |  |  |  | 21164 | 24426 | 3.0 | 3.4 | 3.4 | 325 | 332 | 332 | 332 | 503 | 171 | 165 | Fluorescence Lifetime [5]: 1.28 ns; Lifetime ([5]; Table 4): 1.28 ± 0.004 ns; Lifetime ([5]; Table S13): 1.28 ± 0.004 ns

Further lines, with some results ahead:

ε ([1]; ACN only) [M⁻¹ cm⁻¹] | ε ([1]; ACN:PBS (50:50 v/v)) [M⁻¹ cm⁻¹] | Q.Y. ([2]; ACN only) [%] | Q.Y. ([2]; ACN:PBS (50:50 v/v)) [%] | Abs. λabs ([3]; ACN only) [nm] | Abs. λabs ([3]; ACN:PBS (50:50 v/v)) [nm] | Stokes shift ([4]; ACN only) [nm] | Stokes shift ([4]; ACN:PBS (50:50 v/v)) [nm] | Molar Absorptivity (ε) [1, 6] [M⁻¹ cm⁻¹] | Molar Absorptivity (ε) [1, 7] [M⁻¹ cm⁻¹] | Fluorescence QY [2] [%] | Fluorescence quantum yield [2] [%] | Fluorescence quantum yield ([2]; Table S12) [%] | Absorbance λmax ([3]; 25 μM in ACN) [nm] | Absorbance λmax [3, 8] [nm] | Absorbance Wavelength ([3]; Table 11) [nm] | Absorbance Wavelength ([3]; Table S14) [nm] | Emission λmax [4, 8] [nm] | Stokes shift ([4]; ACN/PBS buffer (1:1 v/v)) [nm] | Stokes shift ([4]; in ACN) [nm] | SMILES | also measured
21094 | 20460 | 0.52 | 0.26 | 369 | 375 | 162 | 159 |  |  |  |  |  |  |  |  |  |  |  |  | Cc1c(C)n2c(/C=C/c3nc4ccc(O)cc4s3)c(C)c(=O)n2c1=O [Compound 8e, (E)-3-(2-(6-hydroxybenzo[d]thiazol-2-yl)vinyl)-2,5,6-trimethyl-1H,7H-pyrazolo[1,2-a]pyrazole-1,7-dione] | 
32612 | 31088 | 0.56 | 0.21 | 340 | 345 | 192 | 185 |  |  |  |  |  |  |  |  |  |  |  |  | Cc1c(C)n2c(/C=C/c3nc4ccc(F)cc4s3)c(C)c(=O)n2c1=O [Compound 8b, (E)-3-(2-(6-fluorobenzo[d]thiazol-2-yl)vinyl)-2,5,6-trimethyl-1H,7H-pyrazolo[1,2-a]pyrazole-1,7-dione] | 
26667 | 27587 | 0.1 | 0.06 | 346 | 349 | 229 | 99 |  |  |  |  |  |  |  |  |  |  |  |  | Cc1c(C)n2c(/C=C/c3nc4ccc([N+](=O)[O-])cc4s3)c(C)c(=O)n2c1=O [Compound 8a, (E)-2,3,6-trimethyl-5-(2-(6-nitrobenzo[d]thiazol-2-yl)vinyl)-1H,7H-pyrazolo[1,2-a]pyrazole-1,7-dione] | Em. λem ([4]; ACN:PBS (50:50 v/v), 25 μM): 448 nm
22961 | 22575 | 0.54 | 0.27 | 367 | 373 | 163 | 157 |  |  |  |  |  |  |  |  |  |  |  |  | COc1ccc2nc(/C=C/c3c(C)c(=O)n4c(=O)c(C)c(C)n34)sc2c1 [Compound 8d, (E)-3-(2-(6-methoxybenzo[d]thiazol-2-yl)vinyl)-2,5,6-trimethyl-1H,7H-pyrazolo[1,2-a]pyrazole-1,7-dione] | 
29974 | 29304 | 0.4 | 0.16 | 339 | 344 | 195 | 192 |  |  |  |  |  |  |  |  |  |  |  |  | Cc1c(C)n2c(/C=C/c3nc4ccccc4s3)c(C)c(=O)n2c1=O [Compound 8c, (E)-3-(2-(benzo[d]thiazol-2-yl)vinyl)-2,5,6-trimethyl-1H,7H-pyrazolo[1,2-a]pyrazole-1,7-dione] | 
